Key:
[1] = tested on: winter wheat (Vershin variety); test: Winter wheat seed treatment with BHMPA salts: germinating power (length and mass of roots and sprouts); format: in vivo
Procedure, shortened: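 Seeds (50 per Petri dish on two layers of filter paper) soaked 1 h in BHMPA or its Ca, Mg, Na, Co, Mn, Cu or Zn salts at 1·10^−6-1·10^−12%, with water controls. Germination energy read on day 4, germination on day 8 (wheat) or day 7 (rice, corn), as % means of four replicates. Germinating power taken as root and sprout length plus wet and dry mass per 100 seedlings.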

rice (Diamant variety) = test: Rice seed treatment with BHMPA salts: germination energy and germination rate; format: in vivo; settings: for Germination energy / Germination rate: rice
Procedure, shortened: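 Corn, winter wheat and rice seeds (50 per dish, on filter paper) were soaked for 1 h in BHMPA or its metal salts at 1·10^−6-1·10^−12%, with water as control. Germination energy was read on day 4 and germination rate on day 8 for wheat and day 7 for rice and corn, following GOST 12038-84, as the mean of four replicates.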

[2] = comparative study, 1·10^−9% solution
[3] = rice seed treatment, solution 1 · 10^−10%
[4] = comparative study vs Melaphen, 1·10^−8% solution

## O=P([O-])(CO)CO.O=P([O-])(CO)CO.[Zn+2] [Zn-salt, Zinc BHMPA Salt]
[1]; 1·10^−6% solution
  Length, root: 9.1 cm
  Length, root, + % to control: −6%
  Length, sprout: 6.9 cm
  Length, sprout, + % to control: −4%
  Mass, dry, root: 0.60 g/100 plantlings
  Mass, dry, root, + % to control: 5%
  Mass, dry, sprout: 0.61 g/100 plantlings
  Mass, dry, sprout, + % to control: −4%
  Mass, wet, root: 2.58 g/100 plantlings
  Mass, wet, root, + % to control: 0%
  Mass, wet, sprout: 4.73 g/100 plantlings
  Mass, wet, sprout, + % to control: −1%
[1]; 1·10^−7% solution
  Length, root: 10.2 cm
  Length, root, + % to control: 5%
  Length, sprout: 7.3 cm
  Length, sprout, + % to control: 1%
  Mass, dry, root: 0.62 g/100 plantlings
  Mass, dry, root, + % to control: 9%
  Mass, dry, sprout: 0.70 g/100 plantlings
  Mass, dry, sprout, + % to control: 9%
  Mass, wet, root: 2.61 g/100 plantlings
  Mass, wet, root, + % to control: 1%
  Mass, wet, sprout: 4.88 g/100 plantlings
  Mass, wet, sprout, + % to control: 2.5%
[1]; 1·10^−8% solution
  Length, root: 10.3 cm
  Length, root, + % to control: 6%
  Length, sprout: 7.5 cm
  Length, sprout, + % to control: 4%
  Mass, dry, root: 0.64 g/100 plantlings
  Mass, dry, root, + % to control: 12%
  Mass, dry, sprout: 0.77 g/100 plantlings
  Mass, dry, sprout, + % to control: 20%
  Mass, wet, root: 2.77 g/100 plantlings
  Mass, wet, root, + % to control: 7%
  Mass, wet, sprout: 4.98 g/100 plantlings
  Mass, wet, sprout, + % to control: 5%
[1]; 1·10^−9% solution
  Length, root: 10.9 cm
  Length, root, + % to control: 12%
  Length, sprout: 7.6 cm
  Length, sprout, + % to control: 5.5%
  Mass, dry, root: 0.69 g/100 plantlings
  Mass, dry, root, + % to control: 21%
  Mass, dry, sprout: 0.82 g/100 plantlings
  Mass, dry, sprout, + % to control: 28%
  Mass, wet, root: 3.58 g/100 plantlings
  Mass, wet, root, + % to control: 38%
  Mass, wet, sprout: 5.13 g/100 plantlings
  Mass, wet, sprout, + % to control: 8%
[1]; 1·10^−10% solution
  Length, root: 10.8 cm
  Length, root, + % to control: 11%
  Length, sprout: 7.6 cm
  Length, sprout, + % to control: 5.5%
  Mass, dry, root: 0.65 g/100 plantlings
  Mass, dry, root, + % to control: 14%
  Mass, dry, sprout: 0.80 g/100 plantlings
  Mass, dry, sprout, + % to control: 25%
  Mass, wet, root: 3.24 g/100 plantlings
  Mass, wet, root, + % to control: 25%
  Mass, wet, sprout: 4.96 g/100 plantlings
  Mass, wet, sprout, + % to control: 4%
[1]; 1·10^−11% solution
  Length, root: 10.3 cm
  Length, root, + % to control: 6%
  Length, sprout: 7.3 cm
  Length, sprout, + % to control: 1%
  Mass, dry, root: 0.63 g/100 plantlings
  Mass, dry, root, + % to control: 10.5%
  Mass, dry, sprout: 0.74 g/100 plantlings
  Mass, dry, sprout, + % to control: 16%
  Mass, wet, root: 2.8 g/100 plantlings
  Mass, wet, root, + % to control: 8%
  Mass, wet, sprout: 4.92 g/100 plantlings
  Mass, wet, sprout, + % to control: 3%
[1]; 1·10^−12% solution
  Length, root: 10.1 cm
  Length, root, + % to control: 4%
  Length, sprout: 7.2 cm
  Length, sprout, + % to control: 0%
  Mass, dry, root: 0.62 g/100 plantlings
  Mass, dry, root, + % to control: 9%
  Mass, dry, sprout: 0.63 g/100 plantlings
  Mass, dry, sprout, + % to control: −1%
  Mass, wet, root: 2.65 g/100 plantlings
  Mass, wet, root, + % to control: 2%
  Mass, wet, sprout: 4.90 g/100 plantlings
  Mass, wet, sprout, + % to control: 3%
[1]; [2]
  Length, root: 9.5 cm
  Length, root, + % to control: 9%
  Length, sprout: 6.3 cm
  Length, sprout, + % to control: 2%
  Mass, dry, root: 0.68 g/100 plantlings
  Mass, dry, root, + % to control: 10%
  Mass, dry, sprout: 0.55 g/100 plantlings
  Mass, dry, sprout, + % to control: 8%
  Mass, wet, root: 5.18 g/100 plantlings
  Mass, wet, root, + % to control: 43%
  Mass, wet, sprout: 4.91 g/100 plantlings
  Mass, wet, sprout, + % to control: 24%
Rice (Diamant variety); [3]
  Germination energy, %: 89.5%
  Germination rate, %: 96.5%
Rice (Diamant variety); 1·10^−6% solution
  Germination energy: 83.0%
  Germination rate: 89.0%
Rice (Diamant variety); 1·10^−7% solution
  Germination energy: 85.0%
  Germination rate: 91.7%
Rice (Diamant variety); 1·10^−8% solution
  Germination energy: 86.3%
  Germination rate: 94.3%
Rice (Diamant variety); 1·10^−9% solution
  Germination energy: 88.7%
  Germination rate: 96.0%
Rice (Diamant variety); 1·10^−10% solution
  Germination energy: 87.0%
  Germination rate: 94.0%
Rice (Diamant variety); 1·10^−11% solution
  Germination energy: 85.7%
  Germination rate: 91.3%
Rice (Diamant variety); 1·10^−12% solution
  Germination energy: 83.7%
  Germination rate: 89.0%
Rice (Diamant variety); [4]
  Germination energy: 89.5%
  Germination rate: 96.5%
